Results reported in PMC8766476, “Repurposing the Pathogen Box compounds for identification of potent anti-malarials against blood stages of Plasmodium falciparum with PfUCHL3 inhibitory activity” (Scientific Reports, 2022).
Read-outs that look alike come from different tables or passages of the source.

Target: T1, PfUCHL3 (Plasmodium falciparum, UniProt Q8IKM8)
T1 construct: gene UCHL3
Assay: fluorimetric Ub-AMC deubiquitinase assay with recombinant purified PfUCHL3, dose-response
Assay type: biochemical

T1 sequence (Q8IKM8 whole entry): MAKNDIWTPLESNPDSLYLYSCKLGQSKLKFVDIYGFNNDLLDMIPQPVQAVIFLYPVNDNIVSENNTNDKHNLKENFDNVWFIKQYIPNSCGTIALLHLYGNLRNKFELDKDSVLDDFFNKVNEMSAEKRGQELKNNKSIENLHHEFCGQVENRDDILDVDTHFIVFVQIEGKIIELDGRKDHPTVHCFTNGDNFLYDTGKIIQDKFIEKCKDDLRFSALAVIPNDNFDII

Row | Structure (SMILES) | IC50 | IC50 (read-out: IC50)
1 | CC1COC2(CCN(c3nc(=O)c4cc(C(F)(F)F)cc([N+](=O)[O-])c4s3)CC2)O1 (centres unmarked) [compound 1, MMV676603] | 25.1 ± 1.8 µM | 
2 | Cc1cc2nc(NC(=O)C(C)(C)C)nc(Cl)c2n1Cc1ccc(Cl)cc1 [compound 2, MMV688704] |  | 87.1 ± 1.75 µM
